≈ marks a conversion by molar mass, not a printed value.
Assays:
[1] = tested on: Trichophyton mentagrophytes; assay: Antimicrobial activity against Trichophyton mentagrophytes measured per disk; type: functional
Candida albicans = assay: Antimicrobial activity against Candida albicans measured per disk; type: functional
Bacillus subtilis = assay: Antimicrobial activity against Bacillus subtilis measured per disk; type: functional
P388 = assay: Cytotoxicity against mouse P388 cells; type: functional, cell-based

SMILES	MID [1] [µg/mL]	MID (Candida albicans) [µg/mL]	MID (Bacillus subtilis) [µg/mL]	IC50 (P388) [µg/mL]
Cc1nccc2c1[nH]c1ccccc12 [HARMAN]	3.7	1.9	7.5	> 12.5
CCc1nccc2c1[nH]c1ccccc12	1.9	1.9	7.5	> 12.5
C=Cc1nccc2c1[nH]c1c(O)cccc12	0.45	15	7.5	0.1 (≈ 0.476 µM)
COc1ccc(Br)c2c1[nH]c1c(C)nccc12	7.5	7.5	2	5.09 (≈ 17.5 µM)
C=Cc1nccc2c1[nH]c1c(OC(C)=O)cccc12				0.65 (≈ 2.58 µM)
C=Cc1[nH]ccc2c3ccccc3nc1-2	0.1	1.9	1.9	0.1 (≈ 0.515 µM)
CCc1nccc2c1[nH]c1c(O)cccc12	30	30	30	> 12.5
CCc1nccc2c1[nH]c1c(OC)cccc12	7.5	7.5	>60	> 12.5
C=Cc1nccc2c1[nH]c1c(OC)cccc12	0.45	15	7.5	0.1 (≈ 0.446 µM)

Reference: ChEMBL document CHEMBL1151823, “5-Bromo-8-methoxy-1-methyl-beta-carboline, an alkaloid from the New Zealand marine bryozoan Pterocella vesiculosa” (J Nat Prod, 2009)
